Like-named read-outs stand apart in the source and are kept apart here.

The values that follow come from publication PMC10175918 (Communications Biology, 2023).

Common to all, as to test: TGFα-shedding assay-based GPCR screening with chimeric Gα subunit proteins
Holding throughout (type): cell-based

Test [1] deals with T1, 348 GPCRs (Homo sapiens, UniProt O14843).
T1 construct: expressed in transfected cells; host or cells: HEK293A
T1 sequence (O14843 1-346): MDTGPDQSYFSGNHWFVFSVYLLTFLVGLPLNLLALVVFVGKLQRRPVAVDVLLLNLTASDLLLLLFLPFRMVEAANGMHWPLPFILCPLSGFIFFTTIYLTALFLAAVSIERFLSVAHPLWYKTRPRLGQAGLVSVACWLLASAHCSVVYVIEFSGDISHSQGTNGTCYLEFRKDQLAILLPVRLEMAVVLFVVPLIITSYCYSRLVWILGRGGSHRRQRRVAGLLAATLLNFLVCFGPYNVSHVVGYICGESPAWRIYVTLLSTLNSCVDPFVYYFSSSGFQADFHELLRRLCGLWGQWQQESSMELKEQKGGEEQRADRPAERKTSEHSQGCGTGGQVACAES
The conditions noted are these: 10µM, Favipiravir 100μM.

Test [2] has as its target 348 GPCRs (Homo sapiens, UniProt P25021). To be noted: 10µM, Favipiravir 100μM.
Test [3] deals with 348 GPCRs (Homo sapiens, UniProt P30874). The conditions noted are these: 10µM, Favipiravir 100μM.
Chain of 348 GPCRs (Homo sapiens, UniProt P30874) (P30874 whole entry): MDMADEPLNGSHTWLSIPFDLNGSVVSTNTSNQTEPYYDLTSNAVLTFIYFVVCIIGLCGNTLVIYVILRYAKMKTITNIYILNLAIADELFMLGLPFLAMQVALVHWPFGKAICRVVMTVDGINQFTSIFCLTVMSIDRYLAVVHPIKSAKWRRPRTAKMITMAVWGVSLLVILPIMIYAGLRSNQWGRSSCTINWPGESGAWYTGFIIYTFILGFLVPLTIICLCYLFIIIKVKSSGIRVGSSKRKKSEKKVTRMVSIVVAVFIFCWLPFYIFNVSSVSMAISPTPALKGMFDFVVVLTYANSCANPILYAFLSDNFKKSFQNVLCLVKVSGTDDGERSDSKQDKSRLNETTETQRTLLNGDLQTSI
The target of test [4] is T2, 348 GPCRs (Homo sapiens, UniProt P32245).
T2 construct: expressed in transfected cells; host or cells: HEK293A
T2 sequence (P32245 whole entry): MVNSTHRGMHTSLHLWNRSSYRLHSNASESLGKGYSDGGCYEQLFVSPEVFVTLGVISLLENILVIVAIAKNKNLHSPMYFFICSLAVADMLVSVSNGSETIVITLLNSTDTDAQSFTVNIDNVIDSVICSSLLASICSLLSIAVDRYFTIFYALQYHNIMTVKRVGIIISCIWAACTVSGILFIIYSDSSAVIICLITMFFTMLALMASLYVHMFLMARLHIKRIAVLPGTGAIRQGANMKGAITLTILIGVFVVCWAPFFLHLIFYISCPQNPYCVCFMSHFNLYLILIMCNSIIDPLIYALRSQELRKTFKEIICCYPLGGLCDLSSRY

Test [5] addresses T3, 348 GPCRs (Homo sapiens, UniProt P41231).
T3 construct: expressed in transfected cells; host or cells: HEK293A

Test [6] addresses T4, 348 GPCRs (Homo sapiens, UniProt P49190).
T4 construct: expressed in transfected cells; host or cells: HEK293A
The conditions noted are these: 10µM, Favipiravir 100μM.

Test [7] has as its target T5, 348 GPCRs (Homo sapiens, UniProt P51582).
T5 construct: expressed in transfected cells; host or cells: HEK293A

The target of test [8] is T6, 348 GPCRs (Homo sapiens, UniProt P55085).
T6 construct: expressed in transfected cells; host or cells: HEK293A
T6 sequence (P55085 26-397): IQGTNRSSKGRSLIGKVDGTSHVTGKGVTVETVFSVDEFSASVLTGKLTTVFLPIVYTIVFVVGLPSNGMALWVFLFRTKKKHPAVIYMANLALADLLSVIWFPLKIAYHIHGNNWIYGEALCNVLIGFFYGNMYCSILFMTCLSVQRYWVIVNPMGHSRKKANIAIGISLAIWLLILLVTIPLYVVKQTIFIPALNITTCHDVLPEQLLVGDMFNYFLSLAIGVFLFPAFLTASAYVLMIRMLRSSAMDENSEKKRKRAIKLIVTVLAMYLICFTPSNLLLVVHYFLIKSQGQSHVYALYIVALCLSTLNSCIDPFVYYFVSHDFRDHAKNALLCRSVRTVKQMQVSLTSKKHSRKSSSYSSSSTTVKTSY
To be noted: 10µM, Favipiravir 100μM.

Test [9] has as its target T7, 348 GPCRs (Homo sapiens, UniProt Q16602).
T7 construct: expressed in transfected cells; host or cells: HEK293A
To be noted: 10µM, Favipiravir 100μM.

Test [10] deals with T8, 348 GPCRs (Homo sapiens, UniProt Q96RI8).
T8 construct: expressed in transfected cells; host or cells: HEK293A
T8 sequence (Q96RI8 1-345): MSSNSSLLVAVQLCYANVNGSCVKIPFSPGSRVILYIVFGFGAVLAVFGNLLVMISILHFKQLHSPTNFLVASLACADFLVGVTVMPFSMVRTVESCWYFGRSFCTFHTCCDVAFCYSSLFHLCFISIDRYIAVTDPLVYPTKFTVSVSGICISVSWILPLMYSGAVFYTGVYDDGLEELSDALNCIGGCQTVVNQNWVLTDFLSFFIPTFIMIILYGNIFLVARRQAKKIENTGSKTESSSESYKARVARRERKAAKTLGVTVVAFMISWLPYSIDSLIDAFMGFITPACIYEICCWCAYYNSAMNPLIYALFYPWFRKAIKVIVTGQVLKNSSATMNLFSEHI
To be noted: 10µM, Favipiravir 100μM.

Test [11] concerns the target T9, 348 GPCRs (Homo sapiens, UniProt Q99680).
T9 construct: expressed in transfected cells; host or cells: HEK293A
The conditions noted are these: 10µM, Favipiravir 100μM.

Test [12] addresses T10, 348 GPCRs (Homo sapiens, UniProt Q9NYM4).
T10 construct: expressed in transfected cells; host or cells: HEK293A
The conditions noted are these: 10µM, Favipiravir 100μM.

Test [13] addresses T11, 348 GPCRs (Homo sapiens, UniProt Q9NYV8).
T11 construct: expressed in transfected cells; host or cells: HEK293A
T11 sequence (Q9NYV8 1-317): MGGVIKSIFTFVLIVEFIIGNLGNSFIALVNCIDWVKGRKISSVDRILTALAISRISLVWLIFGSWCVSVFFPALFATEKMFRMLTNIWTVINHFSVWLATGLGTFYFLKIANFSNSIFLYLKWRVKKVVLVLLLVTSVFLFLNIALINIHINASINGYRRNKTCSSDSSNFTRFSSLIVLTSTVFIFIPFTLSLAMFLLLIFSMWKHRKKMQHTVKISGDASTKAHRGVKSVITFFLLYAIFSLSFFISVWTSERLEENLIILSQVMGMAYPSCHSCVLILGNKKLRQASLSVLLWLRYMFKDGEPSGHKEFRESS
To be noted: 10µM, Favipiravir 100μM.

Where [14] appears, read: FFA3 (free fatty acid receptor 3), read-out: % GPCR activation compared to TPA.
The mark [15] stands for this setting: H2 (histamine receptor H2), read-out: % GPCR activation compared to TPA.
Where [16] appears, read: SSTR2 (somatostatin receptor 2), read-out: % GPCR activation compared to TPA.
Setting [17] is: PTH2R (parathyroid hormone 2 receptor), read-out: % GPCR activation compared to TPA.
Where [18] appears, read: F2RL1 (coagulation factor II (thrombin) receptor-like 1), read-out: % GPCR activation compared to TPA.
The mark [19] stands for this setting: CALCRL (calcitonin receptor-like receptor), read-out: % GPCR activation compared to TPA.
Where [20] appears, read: TAAR6 (trace amine associated receptor 6), read-out: % GPCR activation compared to TPA.
Setting [21] is: GPR22 (G Protein-Coupled Receptor 22), read-out: % GPCR activation compared to TPA.
Where [22] appears, read: GPR83 (G Protein-Coupled Receptor 83), read-out: % GPCR activation compared to TPA.
Where [23] appears, read: TAS2R14 (taste receptor, type 2, member 14), read-out: % GPCR activation compared to TPA.
The mark [24] stands for this setting: read-out: % GPCR activation compared to TPA, FFA3 (free fatty acid receptor 3).
Setting [25] is: read-out: % GPCR activation compared to TPA, H2 (histamine receptor H2).
[26] abbreviates: read-out: % GPCR activation compared to TPA, SSTR2 (somatostatin receptor 2).
Where [27] appears, read: read-out: % GPCR activation compared to TPA, GPCR MC4R (melanocortin 4 receptor).
The mark [28] stands for this setting: read-out: % GPCR activation compared to TPA, GPCR P2Y2 (purinergic receptor P2Y, G-protein coupled, 2).
Where [29] appears, read: read-out: % GPCR activation compared to TPA, PTH2R (parathyroid hormone 2 receptor).
[30] abbreviates: read-out: % GPCR activation compared to TPA, GPCR P2Y4 (pyrimidinergic receptor P2Y, G-protein coupled, 4).
Setting [31] is: read-out: % GPCR activation compared to TPA, F2RL1 (coagulation factor II (thrombin) receptor-like 1).
Where [32] appears, read: read-out: % GPCR activation compared to TPA, CALCRL (calcitonin receptor-like receptor).
The mark [33] stands for this setting: read-out: % GPCR activation compared to TPA, TAAR6 (trace amine associated receptor 6).
[34] abbreviates: read-out: % GPCR activation compared to TPA, GPR22 (G Protein-Coupled Receptor 22).
The mark [35] stands for this setting: read-out: % GPCR activation compared to TPA, GPR83 (G Protein-Coupled Receptor 83).
The mark [36] stands for this setting: read-out: % GPCR activation compared to TPA, TAS2R14 (taste receptor, type 2, member 14).
Where [37] appears, read: GPCR MC4R (melanocortin 4 receptor), read-out: % GPCR activation compared to TPA.
The mark [38] stands for this setting: GPCR P2Y2 (purinergic receptor P2Y, G-protein coupled, 2), read-out: % GPCR activation compared to TPA.
Setting [39] is: GPCR P2Y4 (pyrimidinergic receptor P2Y, G-protein coupled, 4), read-out: % GPCR activation compared to TPA.

T7 sequence (Q16602 23-461): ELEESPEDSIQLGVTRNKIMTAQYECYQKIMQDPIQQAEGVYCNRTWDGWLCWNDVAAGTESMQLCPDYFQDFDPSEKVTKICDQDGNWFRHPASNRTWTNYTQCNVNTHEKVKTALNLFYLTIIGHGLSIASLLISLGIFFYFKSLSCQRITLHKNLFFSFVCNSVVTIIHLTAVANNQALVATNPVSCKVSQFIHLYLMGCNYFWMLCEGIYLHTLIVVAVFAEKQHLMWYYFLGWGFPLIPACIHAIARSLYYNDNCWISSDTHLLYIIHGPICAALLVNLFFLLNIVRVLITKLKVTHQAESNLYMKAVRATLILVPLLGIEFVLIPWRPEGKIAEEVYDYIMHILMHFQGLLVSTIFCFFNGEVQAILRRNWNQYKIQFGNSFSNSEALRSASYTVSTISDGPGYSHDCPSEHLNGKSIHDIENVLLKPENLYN
T4 sequence (P49190 25-550): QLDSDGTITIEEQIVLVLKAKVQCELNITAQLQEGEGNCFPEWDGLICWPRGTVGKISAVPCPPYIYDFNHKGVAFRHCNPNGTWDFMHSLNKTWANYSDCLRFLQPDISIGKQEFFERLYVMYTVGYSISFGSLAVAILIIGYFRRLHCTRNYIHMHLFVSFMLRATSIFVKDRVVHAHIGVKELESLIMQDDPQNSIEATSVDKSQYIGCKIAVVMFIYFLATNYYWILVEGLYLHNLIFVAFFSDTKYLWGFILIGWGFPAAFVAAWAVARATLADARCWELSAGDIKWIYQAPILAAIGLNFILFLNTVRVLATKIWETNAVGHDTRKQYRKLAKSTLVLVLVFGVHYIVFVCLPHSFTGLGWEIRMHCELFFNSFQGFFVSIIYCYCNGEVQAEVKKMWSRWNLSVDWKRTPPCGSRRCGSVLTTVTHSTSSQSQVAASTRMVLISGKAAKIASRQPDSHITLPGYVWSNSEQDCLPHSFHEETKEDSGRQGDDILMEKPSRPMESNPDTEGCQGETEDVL
T9 sequence (Q99680 whole entry): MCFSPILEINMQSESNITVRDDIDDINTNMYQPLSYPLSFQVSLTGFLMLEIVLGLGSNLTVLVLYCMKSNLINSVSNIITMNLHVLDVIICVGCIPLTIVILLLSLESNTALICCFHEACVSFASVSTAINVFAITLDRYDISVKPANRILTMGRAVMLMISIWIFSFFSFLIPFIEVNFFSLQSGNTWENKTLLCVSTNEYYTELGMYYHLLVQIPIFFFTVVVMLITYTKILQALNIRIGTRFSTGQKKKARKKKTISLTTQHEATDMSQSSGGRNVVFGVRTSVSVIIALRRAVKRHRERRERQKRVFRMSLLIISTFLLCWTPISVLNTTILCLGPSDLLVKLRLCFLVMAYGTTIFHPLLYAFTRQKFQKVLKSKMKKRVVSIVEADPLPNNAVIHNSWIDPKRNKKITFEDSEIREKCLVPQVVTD
T10 sequence (Q9NYM4 17-423): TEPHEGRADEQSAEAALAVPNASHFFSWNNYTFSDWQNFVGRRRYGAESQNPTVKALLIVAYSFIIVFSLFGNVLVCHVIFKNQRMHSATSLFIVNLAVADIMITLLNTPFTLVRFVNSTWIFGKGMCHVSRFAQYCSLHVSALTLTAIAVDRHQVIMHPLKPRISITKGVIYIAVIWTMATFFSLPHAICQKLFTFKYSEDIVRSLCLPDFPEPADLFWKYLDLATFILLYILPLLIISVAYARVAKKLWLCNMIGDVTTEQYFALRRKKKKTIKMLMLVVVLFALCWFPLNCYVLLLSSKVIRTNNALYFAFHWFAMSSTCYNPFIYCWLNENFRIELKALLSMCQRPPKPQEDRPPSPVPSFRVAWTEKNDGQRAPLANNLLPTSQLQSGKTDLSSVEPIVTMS
T3 sequence (P41231 whole entry): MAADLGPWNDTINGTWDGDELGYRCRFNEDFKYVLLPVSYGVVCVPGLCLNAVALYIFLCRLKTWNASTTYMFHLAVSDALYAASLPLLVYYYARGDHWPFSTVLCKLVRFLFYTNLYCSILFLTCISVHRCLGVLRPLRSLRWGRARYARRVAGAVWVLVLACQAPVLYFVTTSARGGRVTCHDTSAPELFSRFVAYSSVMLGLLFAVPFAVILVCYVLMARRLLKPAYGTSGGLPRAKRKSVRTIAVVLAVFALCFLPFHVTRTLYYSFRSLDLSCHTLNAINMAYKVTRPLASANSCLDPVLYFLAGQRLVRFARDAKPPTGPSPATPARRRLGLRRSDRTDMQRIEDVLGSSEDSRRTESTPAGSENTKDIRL
T5 sequence (P51582 whole entry): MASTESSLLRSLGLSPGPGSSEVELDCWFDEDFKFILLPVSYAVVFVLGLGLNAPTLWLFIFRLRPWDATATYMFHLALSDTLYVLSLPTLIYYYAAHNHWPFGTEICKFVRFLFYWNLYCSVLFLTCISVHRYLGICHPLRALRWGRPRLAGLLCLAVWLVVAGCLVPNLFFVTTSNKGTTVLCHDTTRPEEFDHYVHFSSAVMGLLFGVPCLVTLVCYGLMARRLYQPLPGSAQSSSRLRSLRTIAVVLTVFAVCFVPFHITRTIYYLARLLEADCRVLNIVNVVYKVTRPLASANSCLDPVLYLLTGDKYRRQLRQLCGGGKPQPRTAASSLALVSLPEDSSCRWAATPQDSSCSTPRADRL
Chain of 348 GPCRs (Homo sapiens, UniProt P25021) (P25021 whole entry): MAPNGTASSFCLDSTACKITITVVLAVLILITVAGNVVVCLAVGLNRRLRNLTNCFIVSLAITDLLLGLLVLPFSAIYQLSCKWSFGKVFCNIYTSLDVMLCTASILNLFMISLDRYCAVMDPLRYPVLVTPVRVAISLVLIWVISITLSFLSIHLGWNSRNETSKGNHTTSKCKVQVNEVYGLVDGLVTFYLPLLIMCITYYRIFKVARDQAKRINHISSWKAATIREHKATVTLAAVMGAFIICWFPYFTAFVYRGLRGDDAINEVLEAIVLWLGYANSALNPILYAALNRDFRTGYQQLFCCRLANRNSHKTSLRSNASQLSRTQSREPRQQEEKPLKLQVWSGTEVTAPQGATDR

For `NC(=O)c1nc(F)cnc1O` [favipiravir, 6-fluoro-3-hydroxy-2-pyrazinecarboxamide], the activation at 10 µM on 348 GPCRs [1] (setting [14]) was -0.552%; at 348 GPCRs [2] (setting [15]), 0.663%; on 348 GPCRs [3] (setting [16]) it was -0.842%; on 348 GPCRs [8] (setting [18]), -2.7%. Besides, the activation at 100 µM at 348 GPCRs [4] (GPCR MC4R (melanocortin 4 receptor), 100μM, read-out: % GPCR activation compared to TPA) is 2.24%; on 348 GPCRs [5] (GPCR P2Y2 (purinergic receptor P2Y, G-protein coupled, 2), 100μM, read-out: % GPCR activation compared to TPA), -23%; at 348 GPCRs [6] (setting [17]) it was 0.392%; at 348 GPCRs [7] (GPCR P2Y4 (pyrimidinergic receptor P2Y, G-protein coupled, 4), 100μM, read-out: % GPCR activation compared to TPA), -6.06%; on 348 GPCRs [9] (setting [19]) it was -7.08%; at 348 GPCRs [10] (setting [20]), -1.51%. The activation at 100 µM was -0.704% at 348 GPCRs [11] (setting [21]), -2.15% on 348 GPCRs [12] (setting [22]) and 0.627% at 348 GPCRs [13] (setting [23]).
On to `CC(C)OC(=O)[C@H](C)N[P@](=O)(OC[C@H]1O[C@@H](n2ccc(=O)[nH]c2=O)[C@](C)(F)[C@@H]1O)Oc1ccccc1` [sofosbuvir], for which the activation at 10 µM on 348 GPCRs [1] (setting [24]) is 0.217%; at 348 GPCRs [2] (setting [25]), -0.476%; on 348 GPCRs [3] (setting [26]), -1.14%; on 348 GPCRs [4] (setting [27]), -2.6%; at 348 GPCRs [5] (setting [28]), -41.7%; at 348 GPCRs [7] (setting [30]), -14.4%. Moreover, at 348 GPCRs [8] (setting [31]), the activation at 10 µM came out at 0.0736%. Moreover, the activation at 100 µM at 348 GPCRs [6] (setting [29]) is -1.19%; on 348 GPCRs [9] (setting [32]), -3.04%; on 348 GPCRs [10] (setting [33]), -3.52%; on 348 GPCRs [11] (setting [34]) it was 0.408%; at 348 GPCRs [12] (setting [35]), -0.627%; at 348 GPCRs [13] (setting [36]) it was -1.26%.
In the case of `CCC(CC)COC(=O)[C@H](C)N[P@](=O)(OC[C@H]1O[C@@](C#N)(c2ccc3c(N)ncnn23)[C@H](O)[C@@H]1O)Oc1ccccc1` [remdesivir], the activation at 10 µM is 4.74% at 348 GPCRs [1] (setting [24]); 2.05% at 348 GPCRs [2] (setting [25]); 0.304% on 348 GPCRs [3] (setting [26]); 3.44% at 348 GPCRs [4] (setting [27]); -6.22% at 348 GPCRs [5] (setting [28]); -0.00402% on 348 GPCRs [7] (setting [30]). Moreover, on 348 GPCRs [8] (setting [31]), the activation at 10 µM is -1.25%. The activation at 100 µM on 348 GPCRs [6] (setting [29]) is 0.518%; on 348 GPCRs [9] (setting [32]), 4.11%; at 348 GPCRs [10] (setting [33]) it was -0.419%; on 348 GPCRs [11] (setting [34]), -1.09%; on 348 GPCRs [12] (setting [35]) it was -2.36%; at 348 GPCRs [13] (setting [36]), -1.51%.
As for `N#C[C@@]1(c2ccc3c(N)ncnn23)O[C@H](CO)[C@@H](O)[C@H]1O` [GS441524], the activation at 10 µM at 348 GPCRs [1] (setting [14]) was -0.449%; at 348 GPCRs [2] (setting [15]) it was -1.14%; on 348 GPCRs [3] (setting [16]), -0.998%; on 348 GPCRs [4] (setting [37]) it was 2.19%; at 348 GPCRs [5] (setting [38]), -17.2%; on 348 GPCRs [7] (setting [39]), -5.06%. Also, the activation at 10 µM at 348 GPCRs [8] (setting [18]) is 0.132%. The activation at 100 µM is -1.76% on 348 GPCRs [6] (setting [17]); 0.376% on 348 GPCRs [9] (setting [19]); -1.31% on 348 GPCRs [10] (setting [20]); 0.701% on 348 GPCRs [11] (setting [21]); -1.11% at 348 GPCRs [12] (setting [22]); -2.2% at 348 GPCRs [13] (setting [23]).
With `CC(C)C(=O)OC[C@H]1O[C@@H](n2ccc(NO)nc2=O)[C@H](O)[C@@H]1O` [molnupiravir], the activation at 10 µM is -0.0973% on 348 GPCRs [1] (setting [14]); -0.335% at 348 GPCRs [2] (setting [15]); -0.658% at 348 GPCRs [3] (setting [16]); -1.93% at 348 GPCRs [4] (setting [37]); -58.1% at 348 GPCRs [5] (setting [38]); -12.8% on 348 GPCRs [7] (setting [39]). In addition, the activation at 10 µM at 348 GPCRs [8] (setting [18]) is -1.8%. For the same molecule, the activation at 100 µM on 348 GPCRs [6] (setting [17]) is -0.481%; on 348 GPCRs [9] (setting [19]) it was -2.18%; on 348 GPCRs [10] (setting [20]), -2.31%; at 348 GPCRs [11] (setting [21]), -2.13%; on 348 GPCRs [12] (setting [22]), -2.02%; on 348 GPCRs [13] (setting [23]), -1.82%.
